The test system of experiment [1] is erythrocytic glutathione peroxidase. In words: Prevention of the inactivation of glutathione peroxidase by hypochlorous acid. Type of experiment: biochemical, bovine. To be noted: 25 μM test molecule + 10 μM hypochlorous acid, 2 minutes at 37° C.; 100% = no hypochlorous acid and no test molecule. Here is the method:
In a 50 mM potassium phosphate buffer of pH 7.0 containing 0.1 mM DTPA, a quantity of erythrocytic glutathione peroxidase of bovine origin is incubated for 2 minutes at 37° C., at a final concentration of 1.5 U/ml, in the presence of 10 μM hypochlorous acid and in the presence or absence of a molecule described in the present invention (at 25 μM).
After incubation for 2 minutes, 100 μl of this reaction medium are then added to 1.5 ml of 50 mM Tris buffer of pH 7.6 (at 37° C.) containing 0.1 mM DTPA, 0.165 mM β-NADPH, 2.2 mM reduced glutathione and 1.1 U/ml of glutathione disulfide reductase.
Then, after the addition of 50 μl of 6.6 mM t-butyl hydroperoxide, the glutathione peroxidase activity is determined at 37° C. by measuring the decrease in absorbance at 340 nm for 2 minutes.
They are expressed as a percentage of the glutathione peroxidase activity determined under the same experimental conditions in the absence of hypochlorous acid and the test molecule.

For experiment [2], the system named is glucose-6-phosphate dehydrogenase. Description: Prevention of the inactivation of glucose-6-phosphate dehydrogenase by the system Cu(II)/ascorbate/O2. Type of experiment: biochemical, Leuconostoc mesenteroides. Particulars: 25 μM test molecule + 4.5 μM Cu(2+) + 360 μM ascorbate, 5 minutes at 37° C.; 100% = no system and no test molecule. Here is the method: In a 50 mM potassium phosphate buffer of pH 7.0, a quantity of glucose-6-phosphate dehydrogenase (purified from Leuconostoc mesenteroides) is incubated for 5 minutes at 37° C., at a final concentration of 1.2 U/ml, in the presence of 4.5 μM copper sulfate and 360 μM ascorbate and in the presence or absence of a molecule described in the present invention (at 25 μM). After incubation for 5 minutes, 20 μl of this reaction medium are then added to 980 μl of 50 mM Tris buffer of pH 7.5 (at 37° C.) containing 0.380 mM β-NADP^+, 3.3 mM glucose-6-phosphate and 6.3 mM magnesium chloride. The glucose-6-phosphate dehydrogenase activity is then determined at 37° C. by measuring, the increase in absorbance at 340 nm for 7 minutes. They are expressed as a percentage of the glucose-6-phosphate dehydrogenase activity determined under the same experimental conditions in the absence of the system Cu(II)/ascorbate/O2 and the test molecule.

Another experiment deals with double-stranded DNA. In words: Prevention of the degradation of DNA by the system Fe(II)-citrate/H2O2/ascorbate. It counts as biochemical, phage lambda. To be noted: 25 μM test molecule (table) + 20 μM Fe(2+)-citrate, 200 μM ascorbate, 200 μM H2O2, 1 hour at 37° C. How it is done:
After this incubation for one hour, 220 U/ml of catalase are then added to the reaction medium and the integrity of the DNA is measured by spectrofluorimetry after the addition of 10 μl of a 5 mM solution of ethidium bromide to the reaction medium (excitation wavelength: 510 nm; emission wavelength: 590 nm).
The effect of the test molecule is measured by determining the percentage of intact DNA, the value of 100% being determined under the same experimental conditions in the absence of the system Fe(II)-citrate/H2 O2 /ascorbate and the test molecule.

Experiment [3] deals with isolated and perfused rat heart. Description: Inhibition of cardiac necrosis induced by ischemia-reperfusion, perfused isolated heart (Example 16). Particulars: 2 μM in perfusion medium 12 minutes prior to ischemia and during reperfusion. How it is done:
Male Sprague-Dawley rats weighing between 250 and 350 grams are injected intraperitoneally with a solution of sodium heparinate (40 units/100 g). The rats are anesthetized with ether 30 minutes later. The heart is then quickly removed and perfused by Langendorff's method (see 0. LANGENDORFF: Pflugers Arch. Physiol. Mensch. Tiere; (1895); 61; page 291) with electrical stimulation at a frequency of 300/min. The perfusion solution, equilibrated with 95% of oxygen and 5% of carbon dioxide, consists of a modified Krebs-Henseleit buffer (pH 7.4) of the following composition: NaCl118 mM, KCl 4.7 mM, MgSO4 1.2 mM, CaCl2 1 mM, KH2 PO4 1.2 mM, NaHCO3 25 mM and glucose 11 mM. The whole set-up is thermostatically controlled at 37° C.
The functional state of the heart is monitored by measurement of the following hemodynamic parameters: heart rate, systolic and telediastolic ventricular pressures (the difference between these expressing the developed pressure) and minimal and maximal slopes of the pressure variations as a function of time. […]
In addition, the alteration of the myocardial tissue is evaluated by determining the concentration, in the perfusate, of two cytosolic enzymes released into the perfusion medium, namely creatine phosphokinase (CPK) and lactate dehydrogenase (LDH). […]

Experiment [4] has as its system isolated rat heart. In words: Recovery of the developed pressure of a heart subjected to ischemia-reperfusion (Example 18). To be noted: 10 μM BXT 52051 or 2 μM BXT 52052; 12 minutes prior to ischemia and during reperfusion; FIG. 4. How it is done: In the same experimental model as that described in Example 17, the study of BXT 52051 and BXT 52052 is carried out by perfusing the heart with the perfusion medium containing 10 μM BXT 52051 or 2 μM BXT 52052 for 12 minutes prior to the period of ischemia, as well as during the reperfusion. The degradation of the cardiac function is evaluated from the measurement of hemodynamic parameters (systolic and telediastolic ventricular pressures) by determining over time the percentage recovery of the developed pressure (difference between systolic and telediastolic pressure) during the reperfusion, compared to that recorded just before the period of ischemia (stabilized developed pressure).

The next experiment relates to oxyhemoglobin. Particulars: micromolar concentrations; sodium nitrite; in vitro; cited from earlier work.
For experiment [5] the following is noted: pulsed radiolysis or Fenton reaction; cited from earlier work.
The conditions of experiment [6]: physiological conditions (concentrations and pH); cited from earlier work.
Experiment [7] concerns isolated rat heart. Particulars: 100 μmolar; after 15 min of ischemia; cited from earlier work.
Experiment [8] concerns isolated and perfused rat heart. In words: Inhibition of cardiac necrosis induced by ischemia-reperfusion, modified perfusion solution (Example 17). To be noted: 20 μM BXT 52053, 600 μM albumin (BSA) or 100 μM L-ergothioneine; 12 minutes before ischemia and first 30 minutes of reperfusion; FIG. 3. Here is the method: In the same experimental model as that described in Example 16, the composition of the perfusion solution was modified such that it contains 2.5 mM CaCl2 and 2.4 mM MgCl2) (all else being moreover equal). The effect of BXT 52053 is then compared to that of albumin and L-ergothioneine.
This study is carried out by perfusing the heart with the perfusion solution containing 20 μM BXT 52053, or 600 μM albumin (BSA), or 100 μM L-ergothioneine, during the 12 minutes preceding the period of ischemia, then during the first 30 minutes of post-ischemic reperfusion.
The degradation of the myocardial tissue due to the ischemia and/or reperfusion is evaluated by determining the total quantity of creatine phosphokinase (CPK) released into the perfusate during the period of reperfusion. The results are expressed in milliunits of enzyme activity per milligram of heart and per minute.

For experiment [9] the following is noted: in the presence of metal salts (Fe^++); cited from earlier work.
For experiment [10] the following is noted: physiological conditions (concentrations and pH); cited from earlier work. This is another data set of the same source.
For experiment [11] the following is noted: quenching excited states of photosensitizers such as rose bengal; cited from earlier work.
In experiment [12] the test system is ferryl forms of the hemoproteins. Particulars: physiological pH; produced in the presence of H2O2; cited from earlier work.

In the case of `O=C(O)CCc1c[nH]c(=S)[nH]1` [BXT 52020, 3-(2'-mercaptoimidazol-4'-yl)propanoic acid], the “% glutathione peroxidase activity” value in experiment [1] came out at 94.8%. In addition, the “% glucose-6-phosphate dehydrogenase activity” value in experiment [2] worked out at 92.3%. Further, the “% intact DNA” value in the experiment on double-stranded DNA is given as 76.2%.
As to `CCOC(=O)CCc1c[nH]c(=S)[nH]1` [BXT 52021, ethyl 3-(2'-mercaptoimidazol-4'-yl)propanoate], the “% glutathione peroxidase activity” value in [1] is on record as 94.7%. Further, the “% glucose-6-phosphate dehydrogenase activity” value in experiment [2] was determined as 93.7%. The “% intact DNA” value in the experiment with double-stranded DNA is recorded as 78.0%. Besides, the “systolic pressure of heart subjected to ischemia-reperfusion” value in experiment [3] was “maintained”.
With `NCCc1c[nH]c(=S)[nH]1` [BXT 52022, 2-(2'-mercaptoimidazol-4'-yl)ethylamine], in experiment [1], the “% glutathione peroxidase activity” value came out at 94.4%. Moreover, the “% glucose-6-phosphate dehydrogenase activity” value in experiment [2] is on record as 94.4%. In the experiment with double-stranded DNA, the “% intact DNA” value is listed as 80.2%.
Take `NC(=O)CCc1c[nH]c(=S)[nH]1` [BXT 52029, 3-(2'-mercaptoimidazol-4'-yl)propanamide]: in experiment [1], the “% glutathione peroxidase activity” value is listed as 93.2%. Also, the “% glucose-6-phosphate dehydrogenase activity” value in experiment [2] turned out to be 92.3%. Also, the “% intact DNA” value in the experiment on double-stranded DNA is given as 78.0%.
The corresponding values for `CN(C)[C@@H](Cc1c[nH]c(=S)[nH]1)C(=O)O` [BXT 52040, 2'-mercapto-Nα,Nα-dimethyl-L-(+)-histidine] are 99.1%, 104.6% and 75.3%.
For `C[N+](C)(C)CC(CC(=O)[O-])OC(=O)CCc1c[nH]c(S)n1` (stereo not drawn) [BXT 52052, carnitine 3-(2'-mercaptoimidazol-4'-yl)propanoate], the “recovery of the ventricular developed pressure during reperfusion” value in the experiment on isolated rat heart [4] is “recovered much more rapidly and reaches a higher value”.
Regarding `C[N+](C)(C)[C@@H](Cc1c[nH]c(=S)[nH]1)C(=O)[O-]` [L-ergothioneine, L-(+)-Ergothioneine], the “inhibition of methemoglobin formation” value in the experiment with oxyhemoglobin is on record as “effectively inhibit the formation of methemoglobin”. In addition, in experiment [5], the “reaction with OH radicals” value is recorded as “kinetics close to the maximum rate of diffusion”. Besides, the “reaction with hydrogen peroxide” value in [6] is listed as “reacts neither”. For the same molecule, in the experiment on isolated rat heart [7], the “extent of cell necrosis (lactate dehydrogenase activity of the effluent)” value is on record as “limits the extent of cell necrosis”. In experiment [8], the “total quantity of CPK released into the perfusate during 30 minutes of reperfusion” value is on record as “no significant effect”. In addition, the “stimulation of peroxidation of polyunsaturated fatty acids” value in [9] is on record as “does not stimulate the peroxidation of polyunsaturated fatty acids”. Moreover, in experiment [10], the “reaction with superoxide anion” value was “reacts neither”. In addition, the “photoproduction of singlet oxygen” value in [11] is on record as “inhibits the photoproduction of singlet oxygen”. Besides, the “reduction of ferryl forms of hemoproteins” value in experiment [12] is listed as “reduces the ferryl forms of the hemoproteins”.
For “albumin: albumin (BSA), comparison agent in the perfusion solution”, in experiment [8], the “total quantity of CPK released into the perfusate during 30 minutes of reperfusion” value was “no significant effect”.

Source of the values: patent US6056965A, “2-mercapto-imidazole derivatives substituted in position 4 (or 5) as antioxidizing agents, method of preparation and applications in the pharmaceutical, cosmetic or food industries” (Oxis Isle of Man, Limited, priority 1993, dated 2000).
